Experimental data reported in ChEMBL document CHEMBL2157896, “Engineering pH-gated transitions for selective and efficient double-strand DNA photocleavage in hypoxic tumors” (J Med Chem, 2011).
Calls of active or inactive are those of the source. The rule behind the calls is not given here.

Experiments:
Nucleic Acid [1] = test: Induction of DNA cleavage in Escherichia coli pBR322 at 5 uM in pH 6.0 phosphate buffer measured after of UV irradiation; assay type: nucleic-acid assay
Nucleic Acid [2] = test: Induction of DNA cleavage in Escherichia coli pBR322 at 10 uM in pH 7.0 phosphate buffer measured after of UV irradiation; assay type: nucleic-acid assay
Nucleic Acid [3] = test: Induction of DNA damage in Escherichia coli pBR322 at 5 uM in pH 6.0 phosphate buffer measured after of UV irradiation; assay type: nucleic-acid assay
Nucleic Acid [4] = test: Induction of DNA cleavage in Escherichia coli pBR322 at 10 uM in pH 8.0 phosphate buffer measured after of UV irradiation; assay type: nucleic-acid assay
Nucleic Acid [5] = test: Induction of DNA cleavage in Escherichia coli pBR322 at 5 uM in pH 7.0 phosphate buffer measured after of UV irradiation; assay type: nucleic-acid assay
A-375 [6] = test: Drug uptake in human A375 cells at 30 uM incubated for 30 mins by differential interference contrast microscopy; assay type: ADME, cell-based; settings: a-375, 0.5 h
A-375 [7] = test: Drug uptake in human A375 cells at 30 uM incubated for 30 mins by fluorescence microscopy; assay type: ADME, cell-based; settings: a-375, 0.5 h
A-375 [8] = test: Toxicity in human A375 cells at <10 uM under dark condition incubated for 72 hrs by MTT assay; assay type: cell-based; settings: a-375, 72 h
A-375 [9] = test: Phototoxicity in human A375 cells incubated for 72 hrs exposed to UV light for 10 mins by MTT assay; assay type: functional
Nucleic Acid [10] = test: Induction of DNA cleavage in Escherichia coli pBR322 assessed as form3/form2 ratio after UV irradiation; assay type: nucleic-acid assay
Nucleic Acid [11] = test: Induction of DNA cleavage in Escherichia coli pBR322 assessed as form3/form2 ratio at 15 uM at pH 6 to 9 after 10 mins of UV irradiation; assay type: nucleic-acid assay
Nucleic Acid [12] = test: Induction of photochemical DNA cleavage in Escherichia coli pBR322 assessed as disappearance of supercoiled DNA at 15 uM in pH 6.0 phosphate buffer after 10 mins of UV irradiation; assay type: nucleic-acid assay
Nucleic Acid [13] = test: Induction of photochemical DNA cleavage in Escherichia coli pBR322 assessed as disappearance of supercoiled DNA at 15 uM in pH 7.0 phosphate buffer after 10 mins of UV irradiation; assay type: nucleic-acid assay
Nucleic Acid [14] = test: Induction of photochemical DNA cleavage in Escherichia coli pBR322 assessed as disappearance of supercoiled DNA at 15 uM in pH 8.0 phosphate buffer after 10 mins of UV irradiation; assay type: nucleic-acid assay
Nucleic Acid [15] = test: Induction of photochemical DNA cleavage in Escherichia coli pBR322 assessed as supercoiled DNA level at 15 uM in pH 6.0 phosphate buffer measured after 30 secs of UV irradiation; assay type: nucleic-acid assay
Nucleic Acid [16] = test: Induction of photochemical DNA cleavage in Escherichia coli pBR322 assessed as supercoiled DNA level at 10 uM in pH 6.0 phosphate buffer measured after UV irradiation; assay type: nucleic-acid assay
Nucleic Acid [17] = test: Induction of DNA cleavage in Escherichia coli pBR322 at 15 uM in pH 6.0 phosphate buffer measured after of UV irradiation; assay type: nucleic-acid assay
Nucleic Acid [18] = test: Induction of DNA cleavage in Escherichia coli pBR322 at 10 uM in pH 6.0 phosphate buffer measured after of UV irradiation; assay type: nucleic-acid assay

## NCCCC[C@H](N)C(=O)NCCCC[C@H](N)C(=O)Nc1ccc(C#Cc2c(F)c(F)nc(F)c2F)c(C#Cc2c(F)c(F)nc(F)c2F)c1.O=C(O)C(F)(F)F
Nucleic Acid [1]
  Activity: 17%
Nucleic Acid [2]
  Activity: Active
Nucleic Acid [3]
  Activity: 92%
Nucleic Acid [4]
  Activity: Active
Nucleic Acid [5]
  Activity: inactive
A-375 [6]
  Drug uptake: Active
A-375 [7]
  Drug uptake: Active
A-375 [8]
  Activity: Non-toxic
A-375 [9]
  CC50: Active

## CCN[C@H]1CO[C@@H](O[C@H]2[C@H](O[C@H]3C#C/C=C\C#C[C@]4(O)CC(=O)C(NC(=O)OC)=C3/C4=C\CSSSC)O[C@H](C)[C@@H](NO[C@H]3C[C@H](O)[C@H](SC(=O)c4c(C)c(I)c(O[C@@H]5O[C@@H](C)[C@H](O)[C@@H](OC)[C@H]5O)c(OC)c4OC)[C@@H](C)O3)[C@@H]2O)C[C@@H]1OC
Nucleic Acid [10]
  Activity: Active

## NCCCC[C@H](NC(=O)[C@@H](N)CCCCN)C(=O)Nc1ccc(C#Cc2c(F)c(F)nc(F)c2F)c(C#Cc2c(F)c(F)nc(F)c2F)c1.O=C(O)C(F)(F)F
Nucleic Acid [1]
  Activity: 13%
Nucleic Acid [2]
  Activity: Active
Nucleic Acid [3]
  Activity: 77%
Nucleic Acid [4]
  Activity: Active
Nucleic Acid [5]
  Activity: inactive
A-375 [6]
  Drug uptake: Active
A-375 [7]
  Drug uptake: Active
A-375 [8]
  Activity: Non-toxic
A-375 [9]
  CC50: Active

## NCCCC[C@H](NC(=O)[C@@H](N)CCCCN)C(=O)Nc1ccc(C#Cc2c(F)c(F)nc(F)c2F)cc1.O=C(O)C(F)(F)F
Nucleic Acid [11]
  Ratio: 1
Nucleic Acid [12]
  Activity: Active
Nucleic Acid [13]
  Activity: Active
Nucleic Acid [14]
  Activity: Active
Nucleic Acid [15]
  Activity: Active
Nucleic Acid [16]
  Activity: inactive
Nucleic Acid [17]
  Activity: 155%
Nucleic Acid [18]
  Activity: 136%
Nucleic Acid [1]
  Activity: 32%
Nucleic Acid [2]
  Activity: > 61%
A-375 [6]
  Drug uptake: Active
A-375 [7]
  Drug uptake: Active
A-375 [8]
  Activity: Non-toxic
A-375 [9]
  CC50: Active
